Data as given in US20040126431A1, “Method for preparing microspheres containing a water-soluble substance” (priority 2000, published 2004).

Experiments:
[1] = system: PC-3 human prostate tumors (xenografts); test: Antitumor activity on PC-3 human prostate tumors after i.t. administration; assay type: in vivo, Nude mice
Experimental: 10^7 PC-3 cells were inoculated on the flank of male Nude mice. The treatment began from a tumor size of 210-266 mm^3 (day 30).
The volume of the test substances administered to the PC-3 tumors was equivalent to the tumor volume (1 μl of treatment per 1 mm^3 of tumor).
(§1) The experiments were stopped when the size of the tumor reached 2 000 mm^3 or when the period after the final treatment exceeded 60 days. Mice carrying progressive tumors were sacrificed. The mice were weighed and examined twice a week, and the weight of the sick animals was compared with the weight of three healthy mice (no tumor, no treatment, of the same batches). The animals were monitored for 98 days.

[2] = system: IGROV-1 xenografts (peritoneal ovarian adenocarcinoma of human origin); test: Antitumor activity on IGROV-1 tumors after i.p. administration; assay type: in vivo, Nude mice; conditions: for Survival at D98: survivors/5 mice
Source text: 10^7 viable IGROV-1 cells were inoculated i.p. into Nude mice. On day 15 after inoculation of tumor cells, the mice were given the substances tested by i.p. administration.
The control group was given only a solution of 5% glucose or empty microspheres. Each group was made up of 5 mice. Isoflurane was used to anesthetize the animals before implantation of the tumor or sacrifice of the animals.
as §1

SMILES: O=C1[O][Pt]2([NH][C@@H]3CCCC[C@H]3[NH]2)[O]C1=O [Oxaliplatin, oxaliplatin]
- T/C % ([1]; i.v., 6 mg/kg oxaliplatin administered three times every four days): 80.41%
- T/C % ([1]; single i.t. injection, 30 mg/kg oxaliplatin, 30 mg/kg): 5.24%
- T/C % ([1]; single i.v. injection, 15 mg/kg oxaliplatin): 55.47%
- T/C % (median survival time treated / untreated control x 100) ([2]; i.p., 6 mg/kg oxaliplatin administered 3 times every four days, treatment from day 15): 85.71%
- Survival at D98 ([2]; i.p., 6 mg/kg oxaliplatin administered 3 times every four days): 0/5
- antitumor activity (in words) ([2]; i.p., dose of 15 mg base/kg oxaliplatin): did not show any significant antitumor activity
- T/C % (median survival time treated / untreated control x 100) ([2]; single i.p. dose, 15 mg/kg oxaliplatin, day 15): 102.38%
- Survival at D98 ([2]; single i.p. dose, 15 mg/kg oxaliplatin): 1/5
